In patent US20250073249A1, “STEROID COMPOUND, AND PREPARATION METHOD THEREFOR AND USE THEREOF” (SHANGHAI INSTITUTE OF MATERIA MEDICA, CHINESE ACADEMY OF …, priority 2022, published 2025):

Assays:
[1] = In vivo pharmacokinetics in rats after oral gavage; conditions: male SD rats, PO 10 mg/kg
Method: Male SD rats were randomly divided into 6 groups, 3 rats per group. The rats were fasted but not water-deprived for 12-14 h one day before dosing. The test samples were then dissolved in a solvent of 5% DMSO+30% PEG400+65% (0.5% MC) and administered by gavage at 10 mg/kg. Food was provided 4 h after dosing. Blood samples (0.10 mL) were collected via the orbital sinus at 0, 15, 30 min, 1, 2, 4, 6, 8, and 24 h, with EDTA-K2 as anticoagulant. Blood samples were placed on ice after collection and centrifuged to separate plasma within 30 minutes (centrifugation conditions: 5000 rpm, 10 minutes, 4° C.). 50.0 μL of plasma sample (taken from −80° C. freezer, thawed naturally at room temperature and vortexed for 30 seconds) was added to a 1.5 mL centrifuge tube, followed by addition of 500 μL internal standard solution (methanol (TEDIA, HPLC grade), acetonitrile (TEDIA, HPLC grade), formic acid (FA, ACROS ORGANICS, HPLC grade), water was laboratory-made ultrapure water (100.0 ng·mL−1)). The mixture was vortexed for 60 seconds and centrifuged for 3 minutes (centrifugal force 12000 rpm). 100 μL of the supernatant was transferred to a 96-well injection plate containing an equal volume of water, mixed by shaking, and analyzed by LC-MS/MS with an injection volume of 10 μL. The data acquisition and control system software was Analyst 1.5.1 software (Applied Biosystem). The chromatographic sample peaks were integrated automatically. The ratio of sample peak area to internal standard peak area was used as an indicator for regression with sample concentration.
The pharmacokinetic parameters of representative compounds of the present invention were tested in male SD rats after oral gavage administration at 10 mg/kg according to the above conventional method to examine the pharmacokinetic characteristics of the compounds of the present invention in rats.

LNCaP cells = assay: In vitro LNCaP cell proliferation inhibition test (CellTiter-Glo); format: cell-based; conditions: for Maximum Inhibition (%) / IC50: 6 days; for IC50: Homo sapiens, read-out: Anti-proliferative activity IC50
Method: The cells were then digested with trypsin and counted using an automated cell counter to determine cell density. The cell suspension was diluted to the desired density in growth medium. Subsequently, 100 μL of the cell suspension was seeded into 96-well plates and incubated at 37° C. with 5% CO2 for 24 hours. 10 μL of drug solution (including 3-fold serial dilutions of compounds or DMSO) was added to each well, and the plates were incubated at 37° C. with 5% CO2 for 6 days. Prior to measurement, the assay plates were equilibrated to room temperature. 40 μL of CellTiter-Glo® reagent was added to each well. The plates were mixed on an orbital shaker for 2 minutes to induce cell lysis. After incubation at room temperature for 60 minutes to stabilize the luminescence signal, the plates were read on an Envision plate reader.

AR = target: T1, AR (Homo sapiens, UniProt P10275, T878A); assay: In vitro AR degradation activity test in LNCaP cells (ELISA, OD450); format: cell-based; conditions: for DC50: LNCaP cells, 24 hours
T1 construct: endogenous in cells; host or cells: LNCaP
T1 sequence (P10275 1-920 T878A): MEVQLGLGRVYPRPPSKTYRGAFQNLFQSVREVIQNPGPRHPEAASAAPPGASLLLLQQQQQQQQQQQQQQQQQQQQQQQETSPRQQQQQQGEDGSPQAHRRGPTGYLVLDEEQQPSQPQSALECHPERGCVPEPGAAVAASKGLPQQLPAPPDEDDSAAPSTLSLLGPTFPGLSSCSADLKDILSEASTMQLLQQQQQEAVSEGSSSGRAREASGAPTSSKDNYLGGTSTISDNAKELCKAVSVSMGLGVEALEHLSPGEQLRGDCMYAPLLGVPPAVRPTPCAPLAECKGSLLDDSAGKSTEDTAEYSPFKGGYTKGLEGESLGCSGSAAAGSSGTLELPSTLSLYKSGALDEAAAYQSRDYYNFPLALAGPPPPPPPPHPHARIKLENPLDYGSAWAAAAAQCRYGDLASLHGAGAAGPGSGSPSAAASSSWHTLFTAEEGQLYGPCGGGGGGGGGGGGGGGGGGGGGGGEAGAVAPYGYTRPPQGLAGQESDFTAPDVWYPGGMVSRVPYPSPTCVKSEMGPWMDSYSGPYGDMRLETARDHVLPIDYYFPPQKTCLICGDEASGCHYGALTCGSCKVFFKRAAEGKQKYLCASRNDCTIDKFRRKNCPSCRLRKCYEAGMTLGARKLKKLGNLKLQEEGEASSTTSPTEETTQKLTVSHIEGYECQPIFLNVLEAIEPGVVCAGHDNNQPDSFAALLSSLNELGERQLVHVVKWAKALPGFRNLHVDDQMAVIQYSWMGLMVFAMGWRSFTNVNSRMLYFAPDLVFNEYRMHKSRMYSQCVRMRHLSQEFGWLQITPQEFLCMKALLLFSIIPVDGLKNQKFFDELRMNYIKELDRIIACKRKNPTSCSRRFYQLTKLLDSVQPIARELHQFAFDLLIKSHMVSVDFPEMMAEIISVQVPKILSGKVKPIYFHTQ
Method: The cells were then digested with trypsin and counted using an automated cell counter. The cell suspension was diluted to the desired density in growth medium. The cell suspension was then seeded into 96-well plates at 100 μL per well, and the plates were incubated at 37° C. with 5% CO2 for 24 hours. The compounds were then diluted 200-fold to the final concentration with DMSO or 3-fold to the final concentration with culture medium. 50 μL of compound solution was transferred to the 96-well plate and incubated at 37° C. for 24 hours. After 24 hours of incubation, the cell plate was washed 3 times with DPBS, 100 μL of 1× lysis buffer was added to each well, and placed on ice for 30 minutes. The supernatant was collected. The protein in the cell lysate samples was quantified and then diluted to the required concentration. 100 μL of cell lysate sample was added to the appropriate wells, sealed with tape and pressed firmly on top of the wells, and the plate was incubated at 37° C. for 2 hours. The plate contents were then discarded, and washed 4 times with 1× wash buffer, 200 μL per well each time. 100 μL of reconstituted detection antibody was then added, the plate was sealed with tape and incubated at 37° C. for 1 hour. The aspiration/wash step was then repeated, 100 μL of reconstituted HRP-Linked secondary antibody was added to each well, the plate was sealed with tape and incubated at 37° C. for 30 minutes. The aspiration/wash step was then repeated, 100 μL of substrate solution was added to each well and incubated at 37° C. for 10 minutes, and finally 100 μL of stop solution was added to each well. The plate was gently tapped to ensure thorough mixing, and the OD450 nm was recorded.
Degradation rate (%)=(OD450_max−OD450_sample)/(OD450_max−OD450_min)×100,plotted using GraphPad Prism 5 software, and IC50 is calculated using SPSS software.

SMILES | Maximum Inhibition (%) (LNCaP cells) | IC50 (LNCaP cells) | DC50 (AR) | also measured
C[C@]12CC[C@H](O)CC1=CC[C@@H]1[C@@H]2CC[C@]2(C)C(c3cccnc3)=CC[C@@H]12 [Abiraterone, abiraterone, reference compound] | 84.06% | 2800 nM | – | Kel [1]: 0.298 h⁻¹; MRTPO [1]: 4.60 h; AUC(0-inf) ([1]; rat, plasma): 198 ng·h/mL; AUC(0-t) ([1]; rat, plasma): 163 ng·h/mL; half-life ([1]; rat, plasma): 2.37 h; Cmax ([1]; rat, plasma, read-out: Cmax): 48.4 ng/mL; tmax ([1]; rat, plasma, read-out: tmax): 1.83 h
C[C@]12CC[C@H](NC(=O)c3ccncc3)CC1=CCC1C2CC[C@]2(C)C(c3cccnc3)=CCC12 (stereo partly drawn) [Compound 2, N-((3S,10R,13S)-10,13-dimethyl-17-(pyridin-3-yl)-2,3,4,7,8,9,10,11,12,13,14,15-dodecahydro-1H-cyclopenta[a]phenanthren-3-yl)isonicotinamide] | 93.50% | 851 nM | – | –
C[C@]12CC[C@H](NC(=O)c3cccnc3)CC1=CCC1C2CC[C@]2(C)C(c3cccnc3)=CCC12 (stereo partly drawn) [Compound 3, N-((3S,10R,13S)-10,13-dimethyl-17-(pyridin-3-yl)-2,3,4,7,8,9,10,11,12,13,14,15-dodecahydro-1H-cyclopenta[a]phenanthren-3-yl)nicotinamide] | – | – | 2870 nM | –
C[C@]12CC[C@H](NC(=O)c3ccncc3)CC1=CCC1C2CC[C@]2(C)C(n3cnc4ccccc43)=CCC12 (stereo partly drawn) [Compound 8, N-((3S,10R,13S)-17-(1H-benzo[d]imidazol-1-yl)-10,13-dimethyl-2,3,4,7,8,9,10,11,12,13,14,15-dodecahydro-1H-cyclopenta[a]phenanthren-3-yl)isonicotinamide] | 104.5% | 763 nM | 3760 nM | –
C[C@]12CC[C@H](NC(=O)c3ccnnc3)CC1=CCC1C2CC[C@]2(C)C(n3cnc4ccccc43)=CCC12 (stereo partly drawn) [Compound 9] | 95.87% | 765 nM | – | –
C[C@]12CC[C@H](NC(=O)c3ccnnc3)CC1=CCC1C2CC[C@]2(C)C(c3cncnc3)=CCC12 (stereo partly drawn) [Compound 10] | 99.74% | 820 nM | 4250 nM | –
Cc1cn(C2=CCC3C4CC=C5C[C@@H](NC(=O)c6cccnc6)CC[C@]5(C)C4CC[C@]23C)cn1 (stereo partly drawn) [Compound 12, N-((3S,10R,13S)-10,13-dimethyl-17-(4-methyl-1H-imidazol-1-yl)-2,3,4,7,8,9,10,11,12,13,14,15-dodecahydro-1H-cyclopenta[a]phenanthren-3-yl)nicotinamide] | 102.9% | 933 nM | 3580 nM | –
Cc1cn(C2=CCC3C4CC=C5C[C@@H](NC(=O)c6ccncc6F)CC[C@]5(C)C4CC[C@]23C)cn1 (stereo partly drawn) [Compound 15, N-((3S,10R,13S)-10,13-dimethyl-17-(4-methyl-1H-imidazol-1-yl)-2,3,4,7,8,9,10,11,12,13,14,15-dodecahydro-1H-cyclopenta[a]phenanthren-3-yl)-3-fluoroisonicotinamide] | 102.6% | 752 nM | – | –
CCc1cn(C2=CCC3C4CC=C5C[C@@H](NC(=O)c6ccncc6)CC[C@]5(C)C4CC[C@]23C)cn1 (stereo partly drawn) [Compound 18, N-((3S,10R,13S)-17-(4-ethyl-1H-imidazol-1-yl)-10,13-dimethyl-2,3,4,7,8,9,10,11,12,13,14,15-dodecahydro-1H-cyclopenta[a]phenanthren-3-yl)isonicotinamide] | 98.53% | 356 nM | 3210 nM | Anti-proliferative activity, fold improvement compared to abiraterone (LNCaP cells; ratio to abiraterone IC50): 7.9 fold
CCc1cn(C2=CCC3C4CC=C5C[C@@H](NC(=O)c6ccnnc6)CC[C@]5(C)C4CC[C@]23C)cn1 (stereo partly drawn) [Compound 19] | 97.68% | 427 nM | – | –
CC(C)c1cn(C2=CCC3C4CC=C5C[C@@H](NC(=O)c6ccncc6)CC[C@]5(C)C4CC[C@]23C)cn1 (stereo partly drawn) [Compound 20, N-((3S,10R,13S)-17-(4-isopropyl-1H-imidazol-1-yl)-10,13-dimethyl-2,3,4,7,8,9,10,11,12,13,14,15-dodecahydro-1H-cyclopenta[a]phenanthren-3-yl)isonicotinamide] | 94.04% | 734 nM | – | –
C[C@]12CC[C@H](NC(=O)c3ccnnc3)CC1=CCC1C2CC[C@]2(C)C(n3cnc(C(F)(F)F)c3)=CCC12 (stereo partly drawn) [Compound 22] | 104.1% | 819 nM | – | –
COc1cn(C2=CCC3C4CC=C5C[C@@H](NC(=O)c6ccnnc6)CC[C@]5(C)C4CC[C@]23C)cn1 (stereo partly drawn) [Compound 24] | 98.02% | 475 nM | 3880 nM | Anti-tumor activity and efficacy compared to enzalutamide (LNCaP cells; in words): comparable anti-tumor activity but significantly superior anti-tumor efficacy compared to enzalutamide
C[C@]12CC[C@H](NC(=O)c3ccnnc3)CC1=CCC1C2CC[C@]2(C)C(n3cnc(C#N)c3)=CCC12 (stereo partly drawn) [Compound 25] | 89.52% | 471 nM | – | –
Cc1cn(C2=CCC3C4CC=C5C[C@@H](NC(=O)c6ccc(C#N)cc6)CC[C@]5(C)C4CC[C@]23C)cn1 (stereo partly drawn) [Compound 36, N-((3S,10R,13S)-17-(4-methyl-1H-imidazol-1-yl)-10,13-dimethyl-2,3,4,7,8,9,10,11,12,13,14,15-dodecahydro-1H-cyclopenta[a]phenanthren-3-yl)-4-cyanobenzamide] | 99.38% | 643 nM | 1370 nM | AR degradation activity, improvement compared to Galeterone (AR; ratio to Galeterone DC50): 7.6 times
